Seven compounds from paper PMC7689250, “Synthetic Peptide Libraries Designed From a Minimal Alpha-Helical Domain of AS-48-Bacteriocin Homologs Exhibit Potent Antibacterial Activity” (Frontiers in Microbiology, 2020) can be followed below.

The test system of one series is sheep erythrocytes. Type of series: cell-based. Particulars: red cells of sheep, 1 h. On the procedure: To determine if peptide variants were hemolytic, fresh defibrinated whole sheep blood (Hardy Diagnostics) was washed three times in cold PBS, and washed blood was diluted 1:25 in PBS. Treatments were applied at a 1:10 ratio of sample:blood, where the sample was either 10% Triton, PBS, or a specific peptide concentration corresponding to concentrations used in the MIC assays. Treatments were incubated with the blood for 1 h at 37°C. Following incubation, samples were centrifuged at […] for 10 min at 4°C, and the absorbance of the supernatants at 450 nm was measured on the Synergy H1 Microplate Reader to measure the release of hemoglobin. Percent hemolysis was quantified by normalizing to the negative and positive controls.

In the next series the test system is S. pyogenes (M1). It counts as cell-based, Streptococcus pyogenes. Particulars: for MBC: M1. Summed up: (§1)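 MIC in Mueller-Hinton broth with 1 × 10^6 CFU/mL bacteria, overnight cultures grown first in LB (E. coli, P. aeruginosa, S. aureus) or Todd-Hewitt (S. pyogenes); growth read as OD 600. Library members screened at half the parent peptide MIC; MBC as lowest concentration giving no colonies after plating MIC wells, 37°C overnight.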

The subject of the next series is E. coli (BL21). Type of series: cell-based, Escherichia coli. Particulars: for MBC: BL21; for MIC: BL21, 16 h. The method, boiled down:
as §1

A further series has as its system S. aureus (USA300). It counts as cell-based, Staphylococcus aureus. Conditions: for MBC: USA300; for MIC: USA300, 16 h. Summed up: as §1
The next series relates to P. aeruginosa (PAO1). It counts as cell-based, Pseudomonas aeruginosa. Particulars: for MBC: PAO1; for MIC: PAO1, 16 h. Summed up:
as §1

Read-outs that look alike come from different tables or passages of the source. Residues, ends and D or L forms follow the SMILES beside them.

Turning to `CC[C@H](C)[C@H](NC(=O)[C@H](CCCCN)NC(=O)[C@H](C)NC(=O)[C@H](CCCNC(=N)N)NC(=O)[C@H](CCCCN)NC(=O)[C@H](CCCCN)NC(=O)CNC(=O)[C@H](CCC(=O)O)NC(=O)[C@H](CCC(N)=O)NC(=O)[C@@H](NC(=O)[C@H](CCCCN)NC(=O)[C@H](CCCCN)NC(=O)[C@H](CCCCN)NC(=O)[C@H](CC(C)C)NC(=O)[C@H](Cc1ccccc1)NC(=O)[C@H](CCC(N)=O)NC(=O)[C@H](CCCNC(=N)N)NC(=O)[C@@H](NC(=O)[C@@H](NC(=O)[C@H](CCC(=O)O)NC(=O)[C@H](CCCCN)NC(=O)CNC(=O)[C@H](C)N)[C@@H](C)O)[C@@H](C)CC)[C@@H](C)CC)C(=O)N[C@@H](C)C(=O)N[C@@H](Cc1c[nH]c2ccccc12)C(=O)O` [Syn-larvacin-92] (H-AGKETIRQFLKKKIQEGKKRAKIAW-OH; N-terminus and C-terminus assumed), in the series on sheep erythrocytes, the “Percent Hemolysis” value worked out at 29.9%. For the same compound, the MBC (commonly the lowest tested concentration that kills the bacteria rather than only halting them) in the series with S. pyogenes (M1) was 1 µM; with E. coli (BL21), 2 µM; in the series with S. aureus (USA300), 8 µM; with P. aeruginosa (PAO1), 128 µM. Further, the MIC (usually the smallest concentration in the dilution series that meets the test's criterion for growth inhibition) was determined as 1 µM in the series with S. pyogenes (M1) (M1, 16 h); 2 µM with E. coli (BL21); 2 µM in the series with S. aureus (USA300); 64 µM in the series on P. aeruginosa (PAO1).

As for `CC[C@H](C)[C@H](NC(=O)[C@H](CCCCN)NC(=O)[C@H](CCCCN)NC(=O)[C@H](CCCCN)NC(=O)[C@H](CC(C)C)NC(=O)[C@H](CCCNC(=N)N)NC(=O)[C@H](CCC(N)=O)NC(=O)[C@H](Cc1ccccc1)NC(=O)[C@@H](NC(=O)[C@@H](NC(=O)[C@H](CCC(=O)O)NC(=O)[C@H](CCCCN)NC(=O)CNC(=O)[C@H](C)N)[C@@H](C)O)[C@@H](C)CC)C(=O)N[C@@H](CCC(N)=O)C(=O)N[C@@H](CCC(=O)O)C(=O)N[C@@H](CCCCN)C(=O)NCC(=O)N[C@@H](CCCCN)C(=O)N[C@@H](CCCNC(=N)N)C(=O)N[C@@H](C)C(=O)N[C@H](C(=O)N[C@H](C(=O)N[C@@H](Cc1c[nH]c2ccccc12)C(=O)N[C@@H](Cc1c[nH]c2ccccc12)C(=O)O)[C@@H](C)CC)[C@@H](C)O` [Syn-larvacin-67] (H-AGKETIFQRLKKKIQEKGKRATIWW-OH; N-terminus and C-terminus assumed), in the series on sheep erythrocytes, the “Percent Hemolysis” value came out at 16.3%. Moreover, the minimum bactericidal concentration (MBC) was found to be 0.25 µM with S. pyogenes (M1), 4 µM with E. coli (BL21), 64 µM in the series with S. aureus (USA300) and 32 µM in the series on P. aeruginosa (PAO1). The MIC with S. pyogenes (M1) (M1, 16 h) is 0.25 µM; in the series with E. coli (BL21), 4 µM; with S. aureus (USA300) it was 64 µM; in the series on P. aeruginosa (PAO1), 16 µM.

On to `CC[C@H](C)[C@H](NC(=O)[C@H](Cc1ccccc1)NC(=O)[C@H](C)NC(=O)[C@H](CCCCN)NC(=O)[C@H](CCCCN)NC(=O)CNC(=O)[C@H](CCCNC(=N)N)NC(=O)[C@H](CCCCN)NC(=O)[C@H](CCCNC(=N)N)NC(=O)[C@H](CC(C)C)NC(=O)[C@H](CCC(=O)O)NC(=O)[C@H](CCC(=O)O)NC(=O)[C@H](CC(C)C)NC(=O)[C@H](CC(C)C)NC(=O)[C@H](Cc1ccc(O)cc1)NC(=O)[C@H](CCCCN)NC(=O)[C@@H](NC(=O)[C@H](CC(C)C)NC(=O)[C@H](C)NC(=O)[C@H](CCC(N)=O)NC(=O)[C@H](CCCNC(=N)N)NC(=O)CNC(=O)[C@H](C)N)[C@@H](C)O)C(=O)N[C@@H](Cc1c[nH]c2ccccc12)C(=O)N[C@@H](Cc1c[nH]c2ccccc12)C(=O)O` [Syn-xiamencin-60] (H-AGRQALTKYLLEELRKRGKKAFIWW-OH; N-terminus and C-terminus assumed), for which, in the series with sheep erythrocytes, the “Percent Hemolysis” value amounted to 10.9%. The minimum bactericidal concentration (MBC) with S. pyogenes (M1) is 4 µM; in the series with E. coli (BL21) it was 8 µM; with S. aureus (USA300), greater than 128 µM; with P. aeruginosa (PAO1), greater than 128 µM. The minimal inhibitory concentration (MIC) with S. pyogenes (M1) (M1, 16 h) was 2 µM; in the series on E. coli (BL21) it was 4 µM; in the series with S. aureus (USA300) it was greater than 128 µM; in the series with P. aeruginosa (PAO1), greater than 128 µM.

As for `CC[C@H](C)[C@H](NC(=O)[C@H](Cc1ccccc1)NC(=O)[C@H](C)NC(=O)[C@H](CCCCN)NC(=O)[C@H](CCCCN)NC(=O)CNC(=O)[C@H](CCCNC(=N)N)NC(=O)[C@H](CCCCN)NC(=O)[C@H](CCCNC(=N)N)NC(=O)[C@H](CC(C)C)NC(=O)[C@H](CCC(=O)O)NC(=O)[C@H](CCC(=O)O)NC(=O)[C@H](CCCCN)NC(=O)[C@H](CC(C)C)NC(=O)[C@H](Cc1ccc(O)cc1)NC(=O)[C@H](CC(C)C)NC(=O)[C@@H](NC(=O)[C@H](CC(C)C)NC(=O)[C@H](C)NC(=O)[C@H](CCC(N)=O)NC(=O)[C@H](CCCNC(=N)N)NC(=O)CNC(=O)[C@H](C)N)[C@@H](C)O)C(=O)N[C@@H](Cc1c[nH]c2ccccc12)C(=O)N[C@@H](Cc1c[nH]c2ccccc12)C(=O)O` [Syn-xiamencin-57] (H-AGRQALTLYLKEELRKRGKKAFIWW-OH; N-terminus and C-terminus assumed), the “Percent Hemolysis” value with sheep erythrocytes was determined as 17.0%. In addition, the MBC was 8 µM in the series on S. pyogenes (M1), 16 µM in the series with E. coli (BL21), 32 µM in the series on S. aureus (USA300) and greater than 128 µM with P. aeruginosa (PAO1). Also, the MIC in the series with S. pyogenes (M1) (M1, 16 h) was 4 µM; in the series with E. coli (BL21), 16 µM; in the series with S. aureus (USA300) it was 16 µM; in the series with P. aeruginosa (PAO1) it was greater than 128 µM.

As for `CC[C@H](C)[C@H](NC(=O)[C@H](CCCNC(=N)N)NC(=O)[C@H](CCC(N)=O)NC(=O)[C@@H](NC(=O)CNC(=O)[C@@H](N)Cc1c[nH]c2ccccc12)[C@@H](C)O)C(=O)N[C@@H](CCCCN)C(=O)N[C@@H](C)C(=O)N[C@@H](Cc1ccc(O)cc1)C(=O)N[C@@H](CC(C)C)C(=O)N[C@@H](CCCNC(=N)N)C(=O)N[C@@H](CCCNC(=N)N)C(=O)N[C@@H](CCC(=O)O)C(=O)N[C@H](C(=O)N[C@@H](CCCNC(=N)N)C(=O)N[C@@H](CCCCN)C(=O)N[C@@H](CCCNC(=N)N)C(=O)NCC(=O)N[C@@H](CCCNC(=N)N)C(=O)N[C@@H](CCCCN)C(=O)N[C@@H](C)C(=O)N[C@H](C(=O)N[C@H](C(=O)N[C@@H](C)C(=O)N[C@@H](Cc1c[nH]c2ccccc12)C(=O)O)[C@@H](C)CC)C(C)C)[C@@H](C)CC` [Syn-sordellicin-11] (H-WGTQRIKAYLRREIRKRGRKAVIAW-OH; N-terminus and C-terminus assumed), in the series with sheep erythrocytes, the “Percent Hemolysis” value came to 21.3%. Moreover, the MBC in the series with S. pyogenes (M1) was 0.5 µM; with E. coli (BL21), 2 µM; in the series on S. aureus (USA300), greater than 128 µM; in the series with P. aeruginosa (PAO1), 8 µM. For the same compound, the MIC was 0.5 µM in the series with S. pyogenes (M1) (S. pyogenes M1), 2 µM with E. coli (BL21), greater than 128 µM in the series with S. aureus (USA300) and 8 µM in the series on P. aeruginosa (PAO1).

`CC[C@H](C)[C@H](NC(=O)[C@H](CCCCN)NC(=O)[C@H](C)NC(=O)[C@H](CCCNC(=N)N)NC(=O)[C@H](CCCCN)NC(=O)CNC(=O)[C@H](CCCCN)NC(=O)[C@H](CCC(=O)O)NC(=O)[C@H](CCC(N)=O)NC(=O)[C@@H](NC(=O)[C@@H](NC(=O)[C@H](CCCCN)NC(=O)[C@H](CCCCN)NC(=O)[C@H](CC(C)C)NC(=O)[C@H](Cc1ccccc1)NC(=O)[C@H](CCC(N)=O)NC(=O)[C@H](CCCNC(=N)N)NC(=O)[C@@H](NC(=O)[C@@H](NC(=O)[C@H](CCC(=O)O)NC(=O)[C@H](CCCCN)NC(=O)CNC(=O)[C@H](C)N)[C@@H](C)O)[C@@H](C)CC)[C@@H](C)O)[C@@H](C)CC)C(=O)N[C@@H](Cc1c[nH]c2ccccc12)C(=O)N[C@@H](Cc1c[nH]c2ccccc12)C(=O)O` [Syn-larvacin-69] (H-AGKETIRQFLKKTIQEKGKRAKIWW-OH; N-terminus and C-terminus assumed): the “Percent Hemolysis” value with sheep erythrocytes is recorded as 12.5%. In addition, the MBC was found to be 0.5 µM with S. pyogenes (M1), 16 µM in the series on E. coli (BL21), 16 µM in the series with S. aureus (USA300) and 32 µM in the series on P. aeruginosa (PAO1). Further, the MIC was determined as 0.125 µM in the series with S. pyogenes (M1) (S. pyogenes M1), 2 µM in the series with E. coli (BL21), 16 µM in the series with S. aureus (USA300) and 32 µM in the series on P. aeruginosa (PAO1).

With `CC[C@H](C)[C@H](NC(=O)[C@H](CCCCN)NC(=O)[C@H](CCCCN)NC(=O)[C@H](CCCCN)NC(=O)[C@H](CC(C)C)NC(=O)[C@H](Cc1ccccc1)NC(=O)[C@H](CCC(N)=O)NC(=O)[C@H](CCCNC(=N)N)NC(=O)[C@@H](NC(=O)[C@@H](NC(=O)[C@H](CCC(=O)O)NC(=O)[C@H](CCCCN)NC(=O)CNC(=O)[C@H](C)N)[C@@H](C)O)[C@@H](C)CC)C(=O)N[C@@H](CCC(N)=O)C(=O)N[C@@H](CCC(=O)O)C(=O)N[C@@H](Cc1c[nH]c2ccccc12)C(=O)N[C@@H](CCCCN)C(=O)N[C@@H](CCCCN)C(=O)N[C@@H](CCCNC(=N)N)C(=O)N[C@@H](C)C(=O)N[C@H](C(=O)N[C@H](C(=O)N[C@@H](C)C(=O)N[C@@H](Cc1c[nH]c2ccccc12)C(=O)O)[C@@H](C)CC)[C@@H](C)O` [Syn-larvacin-44] (H-AGKETIRQFLKKKIQEWKKRATIAW-OH; N-terminus and C-terminus assumed), the “Percent Hemolysis” value in the series with sheep erythrocytes is recorded as 20.9%. The MBC was found to be 0.5 µM in the series with S. pyogenes (M1), 1 µM in the series on E. coli (BL21), 32 µM in the series on S. aureus (USA300) and 32 µM in the series with P. aeruginosa (PAO1). Also, the minimum inhibitory concentration (MIC) in the series on S. pyogenes (M1) (M1, 16 h) is 0.5 µM; in the series on E. coli (BL21) it was 0.5 µM; in the series with S. aureus (USA300), 32 µM; with P. aeruginosa (PAO1), 16 µM.
